Laboratory results as given in article PMC9055273 (RSC Advances, 2020).

System: bacteria
Conditions: 10 μM

c1ccncc1 [pyridine]
Inhibition of bacterial growth: did not obviously inhibit bacterial growth
